Experimental data as given in patent publication US9169291B2, “Covalent conjugates between endoperoxides and transferrin and lactoferrin receptor-binding agents” (University of Washington, priority 2006, dated 2015).
Read-outs that look alike come from different tables or passages of the source.

Columns and labels:
[1] = system: human Molt-4 lymphobastoid leukemia cells; test: cells; settings: for IC50: read-out: IC50 on Molt-4 cells
Description: (§1) The artemisinin-tagged peptide HAIYPRH was tested on human Molt-4 lymphobastoid leukemia cells and compared with normal human lymphocytes, as follows. […] Cell viability was determined before an experiment by using trypan blue dye exclusion. After an initial counting of cells, human holotransferrin (Sigma Chemicals, St. Louis, Mo.) was added to samples of the cells. […] An equal volume of medium was added to control samples. […] At 24, 48 and 72 hrs after the addition of the tagged peptide, cell concentrations in appropriate flasks were counted using a counting hemocytometer chamber and microscope. In a similar set up, the same procedures were carried out on normal human lymphocytes.

[2] = system: DAOY human Medulloblastoma cells; settings: for relative effectiveness on medulloblastoma cells (DAOY cells): two versus one artemisinin moiety
Description: DAOY human Medulloblastoma cells (10,000 cells/200 μL) were seeded on a 96 well plate and incubated for 24 h at 37° C. Cell culture medium was removed after 24 h and 150 μL of medium with different combinations of drug treatment was added. Human holotransferrin (20 μM) was added to half of the samples. Treatment medium was removed after 48 h, and 100 μL of cell medium was added, and the following protocol was used to determine cell viability: (1) 10 μL of 12 mM MTT reagent was added to each well; (2) the cultures were incubated at 37° C. for 4 h; (3) 100 μL of isopropanol was added to each well to lyse the cells and then incubated at 4° C. for 30 min; (4) after incubation each well was plunged (3×200 μL) to ensure the cells were lysed; (5) the samples were then centrifuged at 13,000 rpm in a microcentrifuge for 3 min at room temperature; and (6) 100 μL of the supernatant was read in a plate reader at λ=570 nm.

[3] = system: normal human lymphocytes; test: Toxicity of artemisinin-tagged peptide in normal lymphocytes (cell counting)
Description: as §1

[4] = system: human leukemia cells; settings: cited from earlier work
[5] = cited from earlier work

Compound: CC[C@H](C)[C@H](NC(=O)[C@H](C)NC(=O)[C@H](Cc1c[nH]cn1)NC(=O)[C@H](CCCCNC(=O)c1ccc(/C=N/NC(=O)c2ccc(COC3OC4O[C@@]5(C)CCC6[C@H](C)CCC([C@H]3C)[C@@]46OO5)cc2)cc1)NC(=O)c1ccc(/C=N/NC(=O)c2ccc(COC3OC4O[C@@]5(C)CCC6[C@H](C)CCC([C@H]3C)[C@@]46OO5)cc2)cc1)C(=O)N[C@@H](Cc1ccc(O)cc1)C(=O)N1CCC[C@H]1C(=O)N[C@@H](CCCNC(=N)N)C(=O)N[C@@H](Cc1c[nH]cn1)C(N)=O (stereo partly shown) [ART2-peptide]
- change in activity after storage in DMSO ([1]; kept in DMSO at room temperature for one month): essentially no change in activity
- IC50 ([1]; at 72 hrs, holotransferrin 12 μM): 0.86 ± 0.1 µM
- effect on medulloblastoma cells (DAOY cells) ([2]; 48 h treatment, MTT): effective
- relative effectiveness on medulloblastoma cells (DAOY cells) [2]: more effective than ART-peptide
- relative effectiveness on medulloblastoma cells (DAOY cells) ([2]; listed as peptide containing two artemisinin moieties): more potent than peptide containing one moiety

Compound: CC[C@H](C)[C@H](NC(=O)[C@H](C)NC(=O)[C@H](Cc1c[nH]cn1)NC(=O)c1ccc(/C=N/NC(=O)c2ccc(COC3OC4O[C@@]5(C)CCC6[C@H](C)CCC([C@H]3C)[C@@]46OO5)cc2)cc1)C(=O)N[C@@H](Cc1ccc(O)cc1)C(=O)N1CCC[C@H]1C(=O)N[C@@H](CCCNC(=N)N)C(=O)N[C@@H](Cc1c[nH]cn1)C(N)=O (stereo partly shown) [ART-peptide]
- effect on normal lymphocytes (cell viability) ([3]; 3.1, 6.2, 12.4 μM, 24, 48 and 72 hours): without affecting normal lymphocytes

Compound: C[C@@H]1CC[C@H]2[C@@H](C)C(=O)O[C@@H]3O[C@@]4(C)CC[C@@H]1[C@]32OO4 [Artemisinin]
- therapeutic index (toxicity towards cancer cells versus normal cells) [4]: approximately 100

Compound: C[C@H]1[C@@H](O)O[C@@H]2O[C@@]3(C)CC[C@H]4[C@H](C)CC[C@@H]1[C@@]24OO3 [DHA, dihydroartemisinin]
- IC50 ([3]; Homo sapiens, Lymphocyte, read-out: IC50 for normal leukocytes): 43 ± 22 µM
- IC50 ([1]; Homo sapiens, MOLT-4, 72 h): 5.3 ± 0.26 µM
- LD50 (μM) (fresh sample) ([1]; fresh sample, after 72 hr): 5.3 ± 0.26 µM
- LD50 (μM) (after stored in DMSO at room temperature for 30 days) ([1]; stored in DMSO at room temperature for 30 days, after 72 hr): 5.01 ± 0.35 µM

Compound: CO[C@H]1O[C@@H]2O[C@@]3(C)CC[C@H]4[C@H](C)CC[C@@H]([C@H]1C)[C@@]24OO3 [artemether]
- adverse side effects ([5]; patient with pituitary macroadenoma, oral, 12 months): without any observed adverse side effects

Compound: C[C@H]1[C@H](OC(=O)CCC(=O)O)O[C@@H]2O[C@@]3(C)CC[C@H]4[C@H](C)CC[C@@H]1[C@@]24OO3 [artesunate]
- adverse side effects ([5]; cancer patient, 9 months (i.m. 60 mg/day 15 days; oral 50 mg per day 8.5 months)): No apparent adverse side effects
